Laboratory results as given in article PMC7616682 (Journal of biological inorganic chemistry : JBIC : a …, 2024).
Converted amounts (≈) assume the structure as drawn. Read-outs that look alike come from different tables or passages of the source.

Key:
[1] = LogP by shake-flask method (n-octanol/phosphate buffer)
Protocol: using the "shake-flask" method.[6],[7] In short, phosphate buffer (50 mM, pH 7.4) was saturated with n-octanol by shaking a 1:1 mixture of both solution on a laboratory shaker for 72 h, after which the phases were separated. Stock solutions of each complex were then prepared in dimethylsulfoxide at a concentration of 10 mM. […]
(§1) solution with a concentration of 100 µM. From this solution, 1000 µL were transferred into an Eppendorf tube and mixed with 1000 µL of n-octanol. After shaking for 15 min and centrifugation (5 min, 6000 rpm), the two phases were carefully separated, and the contact layer discarded. Then, the absorbance of each phase was recorded with an Agilent 8453 UV/Vis spectrometer.
as §1, with “2 mL solution with” for “solution with”, “1000 µL phosphate buffer. After shaking” for “1000 µL of n-octanol. After shaking”, “rpm), the phases were” for “rpm), the two phases were”

avidin [2] = biological target: T1, avidin (Gallus gallus, UniProt P02701); experiment: HABA/avidin assay; assay type: binding; conditions: titration of HABA/avidin mixture, absorbance at 500 nm
T1 construct: purchased SIGMA-ALDRICH A9275
T1 sequence (P02701 25-152): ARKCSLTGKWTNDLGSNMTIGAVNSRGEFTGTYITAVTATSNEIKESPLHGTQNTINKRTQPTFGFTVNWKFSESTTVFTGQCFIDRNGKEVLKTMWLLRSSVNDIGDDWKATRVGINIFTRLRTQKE
Protocol: properties towards avidin using the HABA assay.[8] A mixture of avidin (6.8 μM, SIGMA-ALDRICH: A9275) and 4'-hydroxyazobenzene-2-carboxylic acid (HABA, 0.3 mM, SIGMA-ALDRICH: H5126) was dissolved in 50 mM sodium phosphate buffer (20 mL, pH 7.4) and allowed to equilibrate for 24 h at 4 °C. Stock solutions of each compound were prepared in dimethyl sulfoxide at a concentration of 1.1 mM. The […]
to the prepared avidin/HABA mixture (1 mL) at room temperature at 5–10 min intervals […]
absorbance then recorded with an Agilent 8453 UV/Vis spectrometer. The formation of the adduct was indicated by a decrease in the absorbance at 500 nm due to the displacement of HABA from the avidin. By plotting -ΔA500 nm vs. the molar concentration ratio c(compound):c(avidin), the binding stoichiometry of the compound to avidin was determined.

streptavidin = streptavidin (Streptomyces avidinii, UniProt P22629); experiment: Isothermal titration calorimetry (ITC) with streptavidin; assay type: binding; conditions: 25 °C, 10 mM HEPES + 2% DMSO; for Kd: read-out: dissociation constant (Kd) to streptavidin
Sequence of streptavidin (P22629 25-183, species assumed): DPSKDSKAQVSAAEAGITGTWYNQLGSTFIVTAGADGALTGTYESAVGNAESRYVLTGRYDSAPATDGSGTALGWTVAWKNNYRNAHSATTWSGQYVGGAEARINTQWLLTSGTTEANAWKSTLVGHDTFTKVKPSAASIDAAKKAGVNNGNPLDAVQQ
Protocol: Isothermal titration calorimetry
Streptavidin (20 µM in 10 mM HEPES plus 2% DMSO) was titrated stepwise with 2 uL injections of the compound (200 µM in 10 mM HEPES + 2% DMSO) at 25 °C, using a Malvern MicroCal PEAQ-ITC. Raw thermograms (top panels) and the binding isotherm from the integrated thermogram (bottom panels) were fit using the One Set of Sites model in the MicroCal PEAQ-ITC analysis software. Circles indicate the integrated heat, and the curve represents the best fit.
Figure S46: Isothermal titration calorimetry measurements of 5.
(§2) (1 picture or pasted object on this page, not shown here)

[3] = tested on: Acinetobacter baumanii ATCC 17978; experiment: Rapid screen broth microdilution assay; assay type: cell-based, Acinetobacter baumannii; conditions: rapid screen without replicates, 24 h, read-out: MIC A. baumannii (Gram negative)
Protocol: (§3) Antibacterial activity assay
(§4) Rapid screen broth microdilution assay
(§5) 5 × 125 mL Erlenmeyer flasks, each filled with 12.5 mL Mueller Hinton broth II (MHBII), were inoculated with Klebsiella pneumoniae ATCC 13883, Acinetobacter baumanii ATCC 17978, Psuedomonas aeruginosa ATCC BAA-47, Staphylococcus aureus […]
(§6) with 12.5 mL BHI broth was inoculated with Enterococcus faecium ATCC 19434. The cultures were incubated at 37 °C with shaking at 180 rpm for 16 h. The suspensions were diluted 100-fold with the requisite broth (E. faecium: 4-fold) and the resultant suspensions incubated for a further 3 h at 37 °C with shaking. […]
(§7) of 0.8–1.2 after 3 h. Stock solutions of the title compounds were prepared in the requisite broth from 100 mM stocks in DMSO with the exceptions of carbenicillin, which was from a 100 mM stock in water and ciprofloxacin from a 10 mM stock in DMSO.
(§8) 6 × 96 well plates were primed with a concentration gradient of the analytes from 200 to 3.13 µM, carbenicillin from 200 to 3.13 µM and ciprofloxacin from 10 to 0.16 µM. The cells were diluted 100-fold to an OD600 of 0.01. All plates were then inoculated with 50 μL per well bacterial culture in the requisite broth to 100 μL per well. Plates were then incubated at 37 °C for 24 h before reading OD600 on a BMG Clariostar platereader. […]

[4] = tested on: Escherichia coli K12 ATCC 10798; experiment: Rapid screen broth microdilution assay; assay type: cell-based; conditions: rapid screen without replicates, 24 h, read-out: MIC E. coli (Gram negative)
Protocol: as §3, §4, §5, §6, §7, §8

[5] = tested on: Klebsiella pneumoniae ATCC 13883; experiment: Rapid screen broth microdilution assay; assay type: cell-based; conditions: rapid screen without replicates, 24 h, read-out: MIC K. pnuemoniae (Gram negative)
Protocol: as §3, §4, §5, §6, §7, §8

[6] = tested on: Psuedomonas aeruginosa ATCC BAA-47; experiment: Rapid screen broth microdilution assay; assay type: cell-based, Pseudomonas aeruginosa; conditions: rapid screen without replicates, 24 h, read-out: MIC P. aeruginosa (Gram negative)
Protocol: as §3, §4, §5, §6, §7, §8

E. faecium ATCC 19434 = experiment: MIC broth microdilution assay; assay type: cell-based, Enterococcus faecium; conditions: 24 h, read-out: MIC E. faecium (Gram positive)
Protocol: (§9) Antibacterial activity assay […]
(§10) MIC broth microdilution assay
(§11) 3 × 125 mL Erlenmeyer flasks, each filled with 12.5 mL MHBII, were inoculated with three different colonies of S. aureus NTCC 12973. 3 × 125 mL Erlenmeyer flasks, each filled with 12.5 mL BHI broth, were inoculated with three different colonies of E. faecium ATCC 19434. The cultures were incubated at 37 °C with shaking at 180 rpm for 16 h.
(§12) OD600 of ~2.5. The suspensions of S. aureus cultures were diluted 100-fold with MHBII while the E. faecium cultures were diluted 4-fold. The resultant suspensions were incubated for a further 3 h at 37 °C with shaking. […]
(§13) after 3 h. Stock solutions of the title compounds were prepared in the requisite broth from 100 mM stocks in DMSO with the exception of carbenicillin, which was from a 100 mM stock in water and vancomycin from a 10 mM stock in DMSO. 15 × 96 well plates were primed with concentration gradients of the analytes and carbenicillin as shown in Figure S60 for S. aureus. 15 × 96 well plates were primed with the concentration […]
(§14) μL per well of the relevant bacterial culture in the requisite broth to 100 μL per well.

S. aureus NTCC 12973 = experiment: MIC broth microdilution assay; assay type: cell-based, Staphylococcus aureus; conditions: 24 h, read-out: MIC S. aureus (Gram positive)
Protocol: as §9, §10, §11, §12, §13, §14
Plates were then incubated at 37 °C for 24 h before reading OD600 on a BMG Clariostar […]
Figure S50: Dose response profiles of the title compounds against S. aureus.
as §2

[7] = tested on: HCT116 (colorectal cancer) cells; experiment: Cell viability (DAPI nuclei count); assay type: cell-based, human
Protocol: (§15) To determine the relative viability, after incubation cells were fixed and stained with DAPI and the number of nuclei per well determined using a CeligoTM Image Cytometer (Figure S52 to S60). […] page 43: Cell viability studies Compound cytotoxicity was tested simultaneously on five representative cell lines […] All cells were cultured in DMEM Glutamax without pyruvate with 10% fetal bovine serum and 1% penicillin/streptomycin (Gibco). Cells were incubated with the compound for 24 or 48 h […] The tested concentration range for each compound was […] The required […] Greiner CELLSTAR® microplates) using the Echo 550 Acoustic Liquid Handler and wells were back-filled with DMSO when required to keep a final DMSO concentration […] Next, 50 μL of cell solution was added to the compound-containing wells using the Integra® […] Bulk dispenser. Cell solutions were prepared to get 5000 […] cells per well for hTERT RPE-1, and 5000 (24 h)/2500 (48 h) cells per well for BEAS- […] After incubation, cells were fixed with 4% PFA (Merck, […]), permeabilized with […] DAPI (Merck, 10236276001). Viable cells were counted using 377 nm excitation and 447 nm emission filters on the CeligoTM Image Cytometer. The number of nuclei per well was determined using the Direct Cell Count analysis from the CeligoPro Sofware […] All conditions were performed in triplicate. Staurosporine (Cambridge Bioscience, s7600) was used as a positive control and DMSO only as a negative control. The percentage of cell viability was normalized to the DMSO-only control and […] logistic curve with the scipy.optimize.curve_fit function. S43

[8] = tested on: HaCat (non-cancer skin) cells; experiment: Cell viability (DAPI nuclei count); assay type: cell-based, human; conditions: 48 h
Protocol: as §15

[9] = tested on: HeLa (cervical cancer) cells; experiment: Cell viability (DAPI nuclei count); assay type: cell-based, human; conditions: 48 h
Protocol: as §15

[10] = tested on: RPE1 (retinal pigment epithelial cells); experiment: Cell viability (DAPI nuclei count); assay type: cell-based, human
Protocol: as §15

[11] = tested on: BEAS2B (non-cancer lung) cells; experiment: Cell viability (DAPI nuclei count); assay type: cell-based, human; conditions: 48 h
Protocol: as §15

[12] = tested on: BEASB2, HaCat, RPE1, HCT116 and HeLa cell lines; experiment: Cell viability, summary over all cell lines studied; assay type: cell-based, human; conditions: Homo sapiens; summary of Table 3, 48 h; read-out: IC50 values, range over all cell lines studied
Protocol: as §15

avidin [13] = biological target: T1, avidin; conditions: cited from earlier work
[14] = shake-flask method, n-octanol/phosphate buffer 50 mM pH 7.4

SMILES	MIC [3]	MIC [4]	MIC [5]	MIC [6]	MIC (E. faecium ATCC 19434; three colonies)	MIC (S. aureus NTCC 12973; three colonies)	IC50 ([7]; 48 h)	IC50 [8]	IC50 [9]	IC50 ([10]; 48 h)	LogP [1, 14]	Kd (streptavidin)	further results
COC(=O)c1n[n]([Pt+])nc1C(=O)OC.F[P-](F)(F)(F)(F)F.c1ccc(-c2cccc(-c3ccccn3)n2)nc1 [Compound 15]	>200 µM	>200 µM	>200 µM	>200 µM	>200 µM	>200 µM	6 µM	15.4 µM	15.9 µM	4.9 µM			LogP ([1]; pH 7.4): -1.80; avidin binding in HABA assay (result in words) (avidin [2]): non-specific protein binding; dissociation constant (Kd) to streptavidin (streptavidin): did not bind to streptavidin
O=C(C#Cc1ccccc1)CCCC[C@@H]1SC[C@@H]2NC(=O)N[C@@H]21 (stereo in doubt) [Compound 5, 7-[(3aS,4S,6aR)-2-oxohexahydro-1H-thieno-[3,4-d]imidazol-4-yl]-1-phenyl-1-heptyn-3-one]											highly lipophilic^a	< 0.001 µM	MIC ([3]; Acinetobacter baumannii, ATCC17978): > 200 µM; MIC ([4]; Escherichia coli, ATCC10798): > 200 µM; MIC ([5]; Klebsiella pneumoniae, ATCC13883): > 200 µM; MIC ([6]; Pseudomonas aeruginosa, ATCCBAA47): > 200 µM; MIC (E. faecium ATCC 19434; Enterococcus faecium, ATCC19434, three colonies): 200 µM (≈ 65.7 µg/mL); MIC (S. aureus NTCC 12973; Staphylococcus aureus, NTCC12973, three colonies): > 200 µM; IC50 ([11]; Homo sapiens, BEAS-2B): 3.6 µM; IC50 ([7]; Homo sapiens, HCT-116, 48 h): 4 µM; IC50 ([8]; Homo sapiens, HaCaT): 3.3 µM; IC50 ([9]; Homo sapiens, HeLa): 3.3 µM; IC50 ([10]; Homo sapiens, RPE-1, 48 h): 2.4 µM; IC50 [12]: 2 to 4 µM
O=C(O)c1ccccc1N=Nc1ccc(O)cc1 [HABA, 4'-hydroxyazobenzene-2-carboxylic acid]													Kd (avidin [13]): 6 µM
F[P-](F)(F)(F)(F)F.O=C1N[C@H]2[C@H](CS[C@H]2CCCCC(=O)c2n[n]([Pt+][c]3cccc(-c4cccc(-c5ccccn5)n4)n3)nc2-c2ccccc2)N1 [Compound 16, [Pt(triazolatoC6H5,biotin)(terpy)]PF6]	>200 µM	>200 µM	>200 µM	>200 µM	>200 µM	>200 µM	6.8 µM	14.1 µM	13.3 µM	5.2 µM	-0.78	0.13 µM	IC50 [11]: 8.3 µM
